Reference: publication PMC12669630, “The twist-and-squeeze activation of CARF-fused adenosine deaminase by cyclic oligoadenylates” (The EMBO Journal, 2025)
Like-named read-outs stand apart in the source and are kept apart here.

Key:
[1] = molecular target: T1, TaqCad1 (Thermoanaerobaculum aquaticum, UniProt A0A062XY19, N549D); experiment: HPLC ATP deamination assay; type: biochemical; conditions: no conversion; cA4 activator, Mg2+, pH 7.5, 55 °C
T1 construct: gene EG19_07865; full length 1-625, C-terminal His6 tag kept, E. coli NiCo21(DE3); homohexamer (trimer of dimers); N-terminal CARF, C-terminal ADA domain

[2] = molecular target: T2, TaqCad1 (Thermoanaerobaculum aquaticum, UniProt A0A062XY19, G264D/N549D); experiment: HPLC ATP deamination assay; type: biochemical; conditions: no conversion; cA4 activator, Mg2+, pH 7.5, 55 °C
T2 construct: gene EG19_07865; full length 1-625, C-terminal His6 tag kept, E. coli NiCo21(DE3); homohexamer (trimer of dimers); N-terminal CARF, C-terminal ADA domain

[3] = molecular target: T3, TaqCad1 (Thermoanaerobaculum aquaticum, UniProt A0A062XY19); experiment: microscale thermophoresis (RED-tris-NTA labelled protein); type: binding
T3 construct: gene EG19_07865; full length 1-625, C-terminal His6 tag kept, E. coli NiCo21(DE3); homohexamer (trimer of dimers); N-terminal CARF, C-terminal ADA domain

[4] = molecular target: TaqCad1 R408D/A411E variant (Thermoanaerobaculum aquaticum); experiment: SEC; gel filtration elution profiles of wild type and R408D/A411E compared; column and buffer of this run not stated

T3 sequence (A0A062XY19 entry or part of it): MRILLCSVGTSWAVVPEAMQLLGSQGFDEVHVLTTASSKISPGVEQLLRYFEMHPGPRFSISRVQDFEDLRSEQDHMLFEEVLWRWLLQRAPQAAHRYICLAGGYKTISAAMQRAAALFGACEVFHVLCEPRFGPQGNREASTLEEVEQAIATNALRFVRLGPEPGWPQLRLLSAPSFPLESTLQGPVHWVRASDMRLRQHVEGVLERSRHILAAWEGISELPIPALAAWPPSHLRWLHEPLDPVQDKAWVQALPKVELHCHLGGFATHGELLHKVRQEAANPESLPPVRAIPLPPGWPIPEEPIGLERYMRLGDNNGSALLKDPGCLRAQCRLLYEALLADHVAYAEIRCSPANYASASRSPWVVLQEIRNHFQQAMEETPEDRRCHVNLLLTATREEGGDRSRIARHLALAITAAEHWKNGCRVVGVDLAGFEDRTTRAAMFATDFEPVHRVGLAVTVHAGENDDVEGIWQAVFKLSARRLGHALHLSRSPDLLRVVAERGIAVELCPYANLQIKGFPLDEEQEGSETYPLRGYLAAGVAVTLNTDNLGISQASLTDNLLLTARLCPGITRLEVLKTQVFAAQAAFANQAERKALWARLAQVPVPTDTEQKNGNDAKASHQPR
T2 sequence (A0A062XY19 entry or part of it G264D/N549D): as the sequence (A0A062XY19 entry or part of it) above, with G264D, N549D counted along it
T1 sequence (A0A062XY19 entry or part of it N549D): as the sequence (A0A062XY19 entry or part of it) above, with N549D counted along it

Question: How did the “HPLC ATP deamination assay” value [1] turn out when `Nc1ncnc2c1ncn2[C@@H]1O[C@H](COP(=O)(O)OP(=O)(O)OP(=O)(O)O)[C@@H](O)[C@H]1O` [ATP] was run?
Answer: Its value is “the N549D or the N549D/G264D variant of TaqCad1 did not react to ATP”.

Question: And the “HPLC ATP deamination assay” value [2]?
Answer: Its value is “the N549D or the N549D/G264D variant of TaqCad1 did not react to ATP”.

Question: For `Nc1ncnc2c1ncn2[C@@H]1O[C@@H]2COP(=O)(O)O[C@H]3[C@@H](O)[C@H](n4cnc5c(N)ncnc54)O[C@@H]3COP(=O)(O)O[C@H]3[C@@H](O)[C@H](n4cnc5c(N)ncnc54)O[C@@H]3COP(=O)(O)O[C@H]3[C@@H](O)[C@H](n4cnc5c(N)ncnc54)O[C@@H]3COP(=O)(O)O[C@H]2[C@H]1O` [cA4], which Kd ([3]; read-out: apparent Kd) is on record?
Answer: Its Kd is 13 ± 7 nM.

Question: With `Nc1ncnc2c1ncn2[C@@H]1O[C@@H]2COP(=O)(O)O[C@H]3[C@@H](O)[C@H](n4cnc5c(N)ncnc54)O[C@@H]3COP(=O)(O)O[C@H]3[C@@H](O)[C@H](n4cnc5c(N)ncnc54)O[C@@H]3COP(=O)(O)O[C@H]3[C@@H](O)[C@H](n4cnc5c(N)ncnc54)O[C@@H]3COP(=O)(O)O[C@H]3[C@@H](O)[C@H](n4cnc5c(N)ncnc54)O[C@@H]3COP(=O)(O)O[C@H]3[C@@H](O)[C@H](n4cnc5c(N)ncnc54)O[C@@H]3COP(=O)(O)O[C@H]2[C@H]1O` [cA6] as the molecule, how does the Kd ([3]; read-out: apparent dissociation constant) read?
Answer: The Kd was roughly 1400 nM.

Question: Which stoichiometry N [4] does the source give for TaqCad1 R408D/A411E variant (enzyme) here?
Answer: The stoichiometry N was 2.
